Bridge positions count the residues as written; N and C are the ends. Square brackets hold non-standard residues; d marks the D form. Peptide text beside a SMILES is read from it. * marks the point of attachment. ξ: configuration not given here. Ac6c(4-Ph-cis-to-N) = N[C@]1(C(=O)O)CC[C@H](c2ccccc2)CC1; Pentanoyl = CCCCC(=O)*; ξK = NCCCCC(N)C(=O)O
Molecular target: T1, MC-4 receptor (Homo sapiens, UniProt P32245)
T1 construct: expressed in transfected cells; host or cells: HEK 293 cells (G418 selected)
Assay: Agonist assay: cAMP response in HEK 293 cells transfected with the MC-4 receptor (Biotrak-cAMP SPA)
Format: cell-based
Conditions: HEK 293 cells transfected with MC-4 receptor, cAMP increase; read-out: EC50 for MC4-R agonist activity
Method: Description: HEK 293 cells transfected with either the MC-4 receptor or MC-1 receptor were grown in 96 well plates. The cells were stimulated with either 100 nM NDP-αMSH or screening compounds. Cyclic AMP was extracted from the cells and concentrations were determined using a Biotrak-cAMP SPA assay. Agonists were identified as those compounds causing an increase in cAMP.
Cell Culture: HEK 293 cells transfected with either the MC-4 receptor or MC-1 receptor were cultured in 75 cm^2 flasks in D-MEM supplemented with 10% FCS and 500 μg/ml G418. Cells were trypsinized and split 1:3 into 96 well flat-bottom tissue culture treated plates. Cells were stimulated at confluence (day 2-4).
cAMP Response: Compounds serially diluted in 100% DMSO were further diluted 1:200 (2.5 μl compound dilution +500 μl media) in D-MEM containing 10% FBS and 0.1 mM IBMX. For unstimulated cells, 2.5 μl of DMSO was added to 500 μl of media. For NDP-αMSH stimulated cells, 2.5 μl of 20μM NDP-αMSH in 100% DMSO was added to 500μl of media (final conc. 100 nM). Final concentration of DMSO in all wells was 0.5%.
Note: Each sample was run in duplicate on separate plates. […]
cAMP Assay: The extracted samples and all reagents included in the kit were brought to room temperature. […] [125I ]cAMP binding to the SPA beads was determined by counting each plate for 2 minutes on a Packard TopCount™. […]

T1 sequence (P32245 whole entry): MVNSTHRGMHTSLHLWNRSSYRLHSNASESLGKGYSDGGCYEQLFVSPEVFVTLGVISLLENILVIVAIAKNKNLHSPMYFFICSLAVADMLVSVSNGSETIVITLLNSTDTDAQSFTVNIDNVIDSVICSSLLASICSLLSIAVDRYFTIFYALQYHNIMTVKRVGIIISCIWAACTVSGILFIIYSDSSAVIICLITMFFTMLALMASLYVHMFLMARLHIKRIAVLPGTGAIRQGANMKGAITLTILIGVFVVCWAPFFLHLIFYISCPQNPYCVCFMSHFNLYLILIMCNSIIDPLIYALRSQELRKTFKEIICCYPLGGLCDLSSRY

EC50: < 500 nM
SMILES: CCCCC(=O)N[C@H]1CC(=O)NCCCCC(C(N)=O)NC(=O)[C@H](Cc2c[nH]c3ccccc23)NC(=O)[C@H](C)NC(=O)[C@@H](Cc2ccccc2)NC(=O)[C@]2(CC[C@H](c3ccccc3)CC2)NC1=O (stereo partly drawn) [Penta-cyclo(Asp-Lys)-Asp-Apc-(D)Phe-Ala-Trp-Lys-NH2] (Pentanoyl-D[Ac6c(4-Ph-cis-to-N)][dF]AW[ξK]-NH2; lactam 1-6)

— US7045591B2, “Selective cyclic peptides with melanocortin-4 receptor (MC4-R) agonist activity” (Hoffmann-La Roche Inc., priority 2000, dated 2006)
